Measurements as given in patent US7951826B2, “Pyrrolidine derivatives as histamine H3 receptor antagonists” (Eli Lilly and Company, priority 2005, dated 2011).

Target: T1, H3R membranes (H3R8-expressing HEK293 cell line) (Homo sapiens, UniProt Q9Y5N1)
T1 construct: expressed in transfected cells; pcDNA3.1(+) vector, G418 selection)
Experiment: [35S] GTP gamma [S] binding assay
Format: biochemical
Conditions: inhibition of [35S]GTP gamma S binding to H3R membranes in presence of agonist R(-)alpha methylhistamine
Method: Membranes isolated as described in (Preparation of Histamine Receptor Subtype Membranes) are used in a [35S]GTPχS functional assay. Binding of [35S]GTPχS to membranes indicates agonist activity. Compounds of the invention of Formula I or Formula II are tested for their ability to inhibit binding in the presence of agonists. Alternately, the same transfected cell lines are used for a cAMP assay wherein H3R agonists inhibit forskolin-activated synthesis of cAMP. Compounds of Formula I or Formula II are tested for their ability to permit forskolin-stimulated cAMP synthesis in the presence of agonist.
cDNA for the human histamine 3 receptor is cloned and expressed as described in (A. Preparation H1R membranes), above. Transfected cells are selected using G418 ([…]), grown, and tested for histamine binding by the SPA described above. For total binding, cells are assayed in a SPA reaction described above containing 50 mM Tris-HCL (assay buffer), pH 7.6, 1 mg wheat germ agglutinin SPA beads (Amersham Pharmacia Biotech, #RPNQ0001), and 1 nM (^3H)-n-alpha-methylhistamine (NEN, NET1027) (total volume per well=200 μl). Thioperimide is added to determine non-specific binding. […]
Antagonist activity of selected compounds is tested for inhibition of [35S] […] Plates are counted in Wallac Trilux 1450 Microbeta scintillation counter for 1 minute. […]

T1 sequence (Q9Y5N1 whole entry): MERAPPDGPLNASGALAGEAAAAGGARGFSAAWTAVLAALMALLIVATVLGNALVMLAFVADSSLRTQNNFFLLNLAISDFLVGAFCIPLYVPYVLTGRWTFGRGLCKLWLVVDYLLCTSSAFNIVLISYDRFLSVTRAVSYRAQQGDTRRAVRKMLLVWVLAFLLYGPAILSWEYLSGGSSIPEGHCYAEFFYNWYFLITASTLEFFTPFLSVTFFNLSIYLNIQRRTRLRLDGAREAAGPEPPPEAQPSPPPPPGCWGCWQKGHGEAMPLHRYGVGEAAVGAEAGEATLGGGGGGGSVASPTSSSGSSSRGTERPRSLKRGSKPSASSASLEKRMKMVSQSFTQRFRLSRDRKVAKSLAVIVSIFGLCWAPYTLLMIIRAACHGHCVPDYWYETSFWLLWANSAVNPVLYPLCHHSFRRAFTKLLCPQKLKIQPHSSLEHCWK

Ki | SMILES
0.145 µM | CCCCOc1ccc(C(=O)N2CCC[C@@H]2CN2CCCC2)cc1
0.0736 µM | COc1ccc(C(=O)N2CCC[C@H]2CN2CCCC2)cc1
